# Measured values: patent publication US9833497B2, “Human originated EGF domain proteins and use of the same” (CHENGDU SOURCEBIO LIMITED-LIABILITY COMPANY, priority 2013, dated 2017)
# What was measured:
# Format in all cases: cell-based
# Serratia marcescens = experiment: MIC against Gram-negative bacteria: Serratia marcescens
# Procedure, shortened: (§1)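 MIC = lowest concentration of recombinant protein showing no growth. Test proteins: purified human-derived EGF domain proteins, two-fold dilution series, three wells per concentration; inoculum 5×10^5 CFU/mL in LB; incubation 37° C with shaking at 175 rpm.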
# Enterobacter cloacae = experiment: MIC against Gram-negative bacteria: Enterobacter cloacae
# Procedure, shortened: as §1
# E. coli BL21 = experiment: MIC against Gram-negative bacteria: E. coli BL21; conditions: for MIC (μg/mL) E. coli BL21 / MIC: E. coli BL21
# Procedure, shortened: as §1
# Proteus mirabilis = experiment: MIC against Gram-negative bacteria: Proteus mirabilis
# Procedure, shortened: as §1
# Moraxella catarrhalis = experiment: MIC against Gram-negative bacteria: Moraxella catarrhalis
# Procedure, shortened: as §1
# Proteus vulgaris = experiment: MIC against Gram-negative bacteria: Proteus vulgaris
# Procedure, shortened: as §1
# Pseudomonas aeruginosa = experiment: MIC against Gram-negative bacteria: Pseudomonas aeruginosa
# Procedure, shortened: as §1
# Citrobacter diversus = experiment: MIC against Gram-negative bacteria: Citrobacter diversus
# Procedure, shortened: as §1
# E. coli DH5α = experiment: Antibacterial activity: MIC and growth curve against E. coli DH5α in 96-well plate; conditions: minimal inhibitory concentration against E. coli DH5α; 96-well plate, 5×10^5 CFU/mL, 37° C., judged after 8 h
# Procedure, shortened: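 Log-phase bacteria (OD600 ~0.5) resuspended in LB at 5×10^5 CFU/mL, exposed to recombinant protein at 50, 25, 12.5 μg/mL final in triplicate, 37 °C shaking at 175 rpm. OD600 read every 30 min; MIC is lowest concentration showing no growth.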
# Aeromonas hydrophila = experiment: MIC against Gram-negative bacteria: Aeromonas hydrophila
# Procedure, shortened: as §1
# Klebsiella pneumonia = experiment: MIC against Gram-negative bacteria: Klebsiella pneumonia
# Procedure, shortened: as §1
# [1] = Serratia marcescens, 96-well plate, 5×10^5 CFU/mL, 37° C., 10 h
# [2] = Enterobacter cloacae, 96-well plate, 5×10^5 CFU/mL, 37° C., 10 h
# [3] = 96-well plate, 5×10^5 CFU/mL, 37° C., 10 h
# [4] = Proteus mirabilis, 96-well plate, 5×10^5 CFU/mL, 37° C., 10 h
# [5] = Moraxella catarrhalis, 96-well plate, 5×10^5 CFU/mL, 37° C., 10 h
# [6] = Proteus vulgaris, 96-well plate, 5×10^5 CFU/mL, 37° C., 10 h
# [7] = Pseudomonas aeruginosa, 96-well plate, 5×10^5 CFU/mL, 37° C., 10 h
# [8] = Citrobacter diversus, 96-well plate, 5×10^5 CFU/mL, 37° C., 10 h
# [9] = Aeromonas hydrophila, 96-well plate, 5×10^5 CFU/mL, 37° C., 10 h
# [10] = Klebsiella pneumonia, 96-well plate, 5×10^5 CFU/mL, 37° C., 10 h
# [11] = S. marcescens, 10 h cultivation at 37° C.
# [12] = E. cloacae, 10 h cultivation at 37° C.
# [13] = P. mirabilis, 10 h cultivation at 37° C.
# [14] = M. catarrhalis, 10 h cultivation at 37° C.
# [15] = P. vulgaris, 10 h cultivation at 37° C.
# [16] = P. aeruginosa, 10 h cultivation at 37° C.
# [17] = C. diversus, 10 h cultivation at 37° C.
# [18] = A. hydrophila, 10 h cultivation at 37° C.
# [19] = K. pneumonia, 10 h cultivation at 37° C.
# [20] = S. marcescens, 10 h cultivation at 37° C., 5×10^5 CFU/mL
# [21] = E. cloacae, 10 h cultivation at 37° C., 5×10^5 CFU/mL
# [22] = 10 h cultivation at 37° C., 5×10^5 CFU/mL
# [23] = P. mirabilis, 10 h cultivation at 37° C., 5×10^5 CFU/mL
# [24] = M. catarrhalis, 10 h cultivation at 37° C., 5×10^5 CFU/mL
# [25] = P. vulgaris, 10 h cultivation at 37° C., 5×10^5 CFU/mL
# [26] = P. aeruginosa, 10 h cultivation at 37° C., 5×10^5 CFU/mL
# [27] = C. diversus, 10 h cultivation at 37° C., 5×10^5 CFU/mL
# [28] = A. hydrophila, 10 h cultivation at 37° C., 5×10^5 CFU/mL
# [29] = K. pneumonia, 10 h cultivation at 37° C., 5×10^5 CFU/mL
substance,measurement,setting,value
PRT85 (KLHFCDSGPCKNSGFCSERWGSFSCDCPVGFGGKDCQ; listed as Homo sapiens),MIC (μg/mL) S. marcescens,Serratia marcescens; [1],50 µg/mL
same,MIC (μg/mL) E. cloacae,Enterobacter cloacae; [2],25 µg/mL
same,MIC (μg/mL) E. coli BL21,E. coli BL21; [3],12.5 µg/mL
same,MIC (μg/mL) P. mirabilis,Proteus mirabilis; [4],50 µg/mL
same,MIC (μg/mL) M. catarrhalis,Moraxella catarrhalis; [5],50 µg/mL
same,MIC (μg/mL) P. vulgaris,Proteus vulgaris; [6],12.5 µg/mL
same,MIC (μg/mL) P. aeruginosa,Pseudomonas aeruginosa; [7],12.5 µg/mL
same,MIC (μg/mL) C. diversus,Citrobacter diversus; [8],25 µg/mL
same,MIC,E. coli DH5α,12.5 µg/mL
same,MIC (μg/mL) A. hydrophila,Aeromonas hydrophila; [9],12.5 µg/mL
same,MIC (μg/mL) K. pneumonia,Klebsiella pneumonia; [10],12.5 µg/mL
PRT1013 (LEDPCPPSFCSKRGRCHIQASGRPQCSCMPGWTGEQCQ; listed as Homo sapiens),MIC,Serratia marcescens; [11],50 µg/mL
same,MIC,Enterobacter cloacae; [12],12.5 µg/mL
same,MIC,E. coli BL21; 10 h cultivation at 37° C.,12.5 µg/mL
same,MIC,Proteus mirabilis; [13],12.5 µg/mL
same,MIC,Moraxella catarrhalis; [14],25 µg/mL
same,MIC,Proteus vulgaris; [15],25 µg/mL
same,MIC,Pseudomonas aeruginosa; [16],12.5 µg/mL
same,MIC,Citrobacter diversus; [17],12.5 µg/mL
same,MIC,E. coli DH5α,12.5 µg/mL
same,MIC,Aeromonas hydrophila; [18],12.5 µg/mL
same,MIC,Klebsiella pneumonia; [19],25 µg/mL
PRT819 (YGHNCSQACACFNGASCDPVHGQCHCAPGWMGPSCL; listed as Homo sapiens),MIC (μg/mL) S. marcescens,Serratia marcescens; [20],25 µg/mL
same,MIC (μg/mL) E. cloacae,Enterobacter cloacae; [21],25 µg/mL
same,MIC (μg/mL) E. coli BL21,E. coli BL21; [22],25 µg/mL
same,MIC (μg/mL) P. mirabilis,Proteus mirabilis; [23],12.5 µg/mL
same,MIC (μg/mL) M. catarrhalis,Moraxella catarrhalis; [24],50 µg/mL
same,MIC (μg/mL) P. vulgaris,Proteus vulgaris; [25],50 µg/mL
same,MIC (μg/mL) P. aeruginosa,Pseudomonas aeruginosa; [26],12.5 µg/mL
same,MIC (μg/mL) C. diversus,Citrobacter diversus; [27],25 µg/mL
same,MIC,E. coli DH5α,12.5 µg/mL
same,MIC (μg/mL) A. hydrophila,Aeromonas hydrophila; [28],12.5 µg/mL
same,MIC (μg/mL) K. pneumonia,Klebsiella pneumonia; [29],12.5 µg/mL
PRT1034 (DENECEQNNGGCSEICVNLKNSYRCECGVGRVLRSDGKTCE; listed as Homo sapiens),MIC,Serratia marcescens; [11],50 µg/mL
same,MIC,Enterobacter cloacae; [12],50 µg/mL
same,MIC,E. coli BL21; 10 h cultivation at 37° C.,50 µg/mL
same,MIC,Proteus mirabilis; [13],50 µg/mL
same,MIC,Moraxella catarrhalis; [14],12.5 µg/mL
same,MIC,Proteus vulgaris; [15],12.5 µg/mL
same,MIC,Pseudomonas aeruginosa; [16],25 µg/mL
same,MIC,Citrobacter diversus; [17],50 µg/mL
same,MIC,E. coli DH5α,25 µg/mL
same,MIC,Aeromonas hydrophila; [18],50 µg/mL
same,MIC,Klebsiella pneumonia; [19],12.5 µg/mL
PRT106 (RSVCDLFPSYCHNGGQCYLVENIGAFCRCNTQDYIWHKGMRCE; listed as Homo sapiens),MIC (μg/mL) S. marcescens,Serratia marcescens; [1],12.5 µg/mL
same,MIC (μg/mL) E. cloacae,Enterobacter cloacae; [2],25 µg/mL
same,MIC (μg/mL) E. coli BL21,E. coli BL21; [3],50 µg/mL
same,MIC (μg/mL) P. mirabilis,Proteus mirabilis; [4],12.5 µg/mL
same,MIC (μg/mL) M. catarrhalis,Moraxella catarrhalis; [5],12.5 µg/mL
same,MIC (μg/mL) P. vulgaris,Proteus vulgaris; [6],12.5 µg/mL
same,MIC (μg/mL) P. aeruginosa,Pseudomonas aeruginosa; [7],12.5 µg/mL
same,MIC (μg/mL) C. diversus,Citrobacter diversus; [8],25 µg/mL
same,MIC,E. coli DH5α,12.5 µg/mL
same,MIC (μg/mL) A. hydrophila,Aeromonas hydrophila; [9],12.5 µg/mL
same,MIC (μg/mL) K. pneumonia,Klebsiella pneumonia; [10],50 µg/mL
PRT157 (VADPCASNPCHHGNCSSSSSSSSDGYLCICNEGYEGPNCE; listed as Homo sapiens),MIC (μg/mL) S. marcescens,Serratia marcescens; [20],12.5 µg/mL
same,MIC (μg/mL) E. cloacae,Enterobacter cloacae; [21],25 µg/mL
same,MIC (μg/mL) E. coli BL21,E. coli BL21; [22],50 µg/mL
same,MIC (μg/mL) P. mirabilis,Proteus mirabilis; [23],12.5 µg/mL
same,MIC (μg/mL) M. catarrhalis,Moraxella catarrhalis; [24],12.5 µg/mL
same,MIC (μg/mL) P. vulgaris,Proteus vulgaris; [25],12.5 µg/mL
same,MIC (μg/mL) P. aeruginosa,Pseudomonas aeruginosa; [26],25 µg/mL
same,MIC (μg/mL) C. diversus,Citrobacter diversus; [27],12.5 µg/mL
same,MIC,E. coli DH5α,12.5 µg/mL
same,MIC (μg/mL) A. hydrophila,Aeromonas hydrophila; [28],12.5 µg/mL
same,MIC (μg/mL) K. pneumonia,Klebsiella pneumonia; [29],12.5 µg/mL
PRT684 (APVLCPLICHNGGVCVKPDRCLCPPDFAGKFCQ; listed as Homo sapiens),MIC S. marcescens,Serratia marcescens; [3],12.5 µg/mL
same,MIC E. cloacae,Enterobacter cloacae; [3],12.5 µg/mL
same,MIC E. coli BL21,E. coli BL21; [3],25 µg/mL
same,MIC P. mirabilis,Proteus mirabilis; [3],25 µg/mL
same,MIC M. catarrhalis,Moraxella catarrhalis; [3],12.5 µg/mL
same,MIC P. vulgaris,Proteus vulgaris; [3],50 µg/mL
same,MIC P. aeruginosa,Pseudomonas aeruginosa; [3],50 µg/mL
same,MIC C. diversus,Citrobacter diversus; [3],25 µg/mL
same,MIC,E. coli DH5α,12.5 µg/mL
same,MIC A. hydrophila,Aeromonas hydrophila; [3],50 µg/mL
same,MIC K. pneumonia,Klebsiella pneumonia; [3],25 µg/mL
